Source: article PMC7002685, “Inhibition of vascular calcification by inositol phosphates derivatized with ethylene glycol oligomers” (Nature Communications, 2020)
“And” between values parts separate entries of the source, which are not always exact repeats. Equal entries are not always repeated. Where two headings read alike, the source gives them in different places.

How the values were obtained:
[1] = tested on: THP-1-derived macrophages; assay: Macrophage viability (MTS) with CPP2 and compounds; type: cell-based, human
Protocol: (§1) Macrophage accumulation and inflammation coincide with the initial phase of calcification. To this end, VSMCs and THP-1-derived macrophages were exposed to CPP2-supplemented medium. CPP2 prepared from human serum as described previously[61] (Supplementary Figs. 6 and 7), induced a pronounced VSMC monolayer calcification after 48 h, which was decreased by (OEG2)2-IP4 in a dose-dependent fashion, and the effect became significant at 10 µM (Fig. 3e). […] Both H2O2 (proxy for oxidative stress) and tumor necrosis factor-alpha (TNF-α) (proxy for inflammatory response) levels were assayed in the VSMC culture supernatants subsequent to CPP2 treatment with and without compounds[30]. However, no increase in H2O2 nor TNF-α compared to control could be detected in either assay. For the CPP-induced VSMC calcification assay (Fig. 3e) a roughly 10-fold higher concentration of (OEG2)2-IP4 was necessary to achieve similar activity as in the CaP-induced VSMC calcification assay (Fig. 3b). […] In the CaP assay, low inhibitor concentration may be sufficient to inhibit crystal nucleation, whereas for the CPP assay higher inhibitor concentrations may be needed to achieve sufficient particle stabilization by chemisorption of inhibitor onto CPPs. Similar results have been reported for hydrogen sulfide in the context of VC[62],[64]. […] An increase in the TNFα levels in the cell culture supernatants was not observed for (OEG2)2-IP4 with (Fig. 3h) and without (Supplementary Fig. 10) combined CPP2 treatment.
(§2) THP-1 cells were plated at a density of 200,000 cells/well in a 24-well plate, differentiated as stated above, and subsequently treated with or without CPP2 (50 μg Ca/mL) in complete medium with or without test compounds (3, 10, 30, 100 μM) for 24 h at 37 °C, 5% CO2.
(§3) Cell viability was assessed using the MTS assay (CellTiter 96® Aqueous One Solution Cell Proliferation Assay, G3580; Promega, Madison, WI, USA) according to the manufacturer’s instructions. Assays using combined treatment of CPPs or CaP and test compounds were performed in 24-well plates using 20,000 cells per well and assays using test compounds only were performed in a 96-well plate format with a seeding density of 10,000 (VSMC) or 50,000 (THP-1) cells per well, respectively. For controls, cells were treated with respective complete medium only and results were calculated as % of control.

[2] = Macrophage viability (MTS) with CPP2 and compounds; type: cell-based, human; conditions: human, THP-1-derived macrophages, read-out: Macrophage viability (MTS), % of medium control; for viability at 24 h, 3 µM: 3 µM + CPP2, replicates Fig. 3i; for viability at 24 h, 10 µM: 10 µM + CPP2; for viability at 24 h, 30 µM: 30 µM + CPP2; for viability at 24 h, 100 µM: 100 µM + CPP2
Protocol: as §1, §2, §3

[3] = biological target: CPP2; assay: Competitive 18F-NaF binding assay on CPPs; design: species or system human; conditions: for IC50: CPP2 20 µg Ca/mL, 18F-NaF 1 nM, 1 h RT, read-out: IC50 (reduction of 18F binding to CPP)
Protocol: A ^18F-NaF-based competitive binding assay was developed to indirectly assess the inhibitor affinity (IC50) to CPPs. The uptake mechanism of ^18F-NaF, a marker of micro-calcification activity by chemisorption onto hydroxyapatite crystals, is contingent on the rapid exchange of hydroxyl (OH^−) groups present on the hydroxyapatite surface (Ca5(PO4)3(OH)) by ^18F^− to form fluoroapatite (Ca5(PO4)3^18F)[34],[54].
Triplicate aliquots of CPP2s (20 µg Ca/mL) in 100 μL assay buffer (100 mM HBS, pH 7.4 (RT)) were incubated for 1 h at RT in the presence of increasing concentrations of compounds in 50 μL Milli-Q water and ^18F-NaF (1 nM) in 50 μL assay buffer, resulting in a total incubation volume of 200 μL (^18F-NaF was prepared using a FASTlab synthesizer (GE Healthcare, Little Chalfont, UK) and commercially available ^18F-NaF cassettes (GE Healthcare)). Maximum radiotracer binding was determined by incubating CPP2s with ^18F-NaF (1 nM) only. The reaction was terminated by rapid filtration through a SOLAμ™ SPE plate (HRP 2 mg/mL 96-well plate, 22 μm; Thermo Fisher Scientific). SPE individual column matrices were washed twice rapidly in assay buffer and radioactivity on the filters determined by an automatic gamma counter (Wizard2 Gamma Counter, Perkin Elmer, Waltham, MA, USA). […] IC50 is the concentration of […] that gives a response half way between the bottom and top parts of the curve. ^18F-NaF micro-PET/computed tomography (micro-PET/CT) was employed for ex vivo analysis of (OEG2)2-IP4’s engagement to target calcified human tissue explants, as described previously. […] Following incubations, samples were washed twice in 0.1 M PBS (1 min per wash) and mounted on a Petri dish for micro-PET/CT imaging (nanoPET/CT, Mediso, Budapest, Hungary). In total, seven samples from the femoral arteries of three patients with ischemic peripheral disease and three samples from native aortic valves of three patients undergoing valve replacement surgery were used. All samples were collected at the time of surgery and stored in 4% paraformaldehyde at RT until further use. All patients gave their written, informed consent. All procedures had local ethical approval (06/S0703/110, 12/WS/0227, 09/S0703/118, and 12/NW/0036). All studies were approved by East and West Scotland Research Ethics Committees, and all experiments were conducted according to the principles expressed in the Declaration of Helsinki.

[4] = 3 µM + CPP2, replicates Fig. 3i, 3 µM

O=P(O)(O)O[C@H]1[C@H](OP(=O)(O)O)[C@@H](OP(=O)(O)O)[C@H](OP(=O)(O)O)[C@@H](OP(=O)(O)O)[C@H]1OP(=O)(O)O [IP6, myo-Inositol hexakisphosphate]
Macrophage viability (MTS), % of medium control [1, 4]: 102.11% and 100.63%
Macrophage viability (MTS), % of medium control ([1]; 10 µM + CPP2, 10 µM): 99.19%
Macrophage viability (MTS), % of medium control ([1]; 30 µM + CPP2, 30 µM): 96.22% and 102.8%
reduction of macrophage viability ([1]; 100 µM + CPP2): 24%
Macrophage viability (MTS), % of medium control ([1]; 100 µM + CPP2, 100 µM): 79.04% and 78.68%
viability at 24 h, 3 µM [2]: 100%
viability at 24 h, 10 µM [2]: 98%
viability at 24 h, 30 µM [2]: 95.5%
viability at 24 h, 100 µM [2]: 69.2%
IC50 [3]: 3.96 µM
18F-NaF percentage binding to CPP2 ([3]; concentration 0.75 (unit not given)): 94.1339% and 121.154% and 102.128%
18F-NaF percentage binding to CPP2 ([3]; concentration 2.5 (unit not given)): 93.0288% and 114.326% and 101.486%
18F-NaF percentage binding to CPP2 ([3]; concentration 7.5 (unit not given)): 92.4582% and 110.79% and 97.129%
18F-NaF percentage binding to CPP2 ([3]; concentration 25 (unit not given)): 95.6995% and 114.564% and 112.333%
18F-NaF percentage binding to CPP2 ([3]; concentration 75 (unit not given)): 85.0945% and 107.18% and 113.212%
18F-NaF percentage binding to CPP2 ([3]; concentration 250 (unit not given)): 87.0585% and 108.409% and 103.034%
18F-NaF percentage binding to CPP2 ([3]; concentration 750 (unit not given)): 87.2718% and 107.684% and 96.5293%
18F-NaF percentage binding to CPP2 ([3]; concentration 1750 (unit not given)): 100.593% and 62.29% and 66.5713%
18F-NaF percentage binding to CPP2 ([3]; concentration 2500 (unit not given)): 85.021% and 85.5383% and 72.51%
18F-NaF percentage binding to CPP2 ([3]; concentration 7500 (unit not given)): 76.4111% and 59.8209% and 66.7993%
18F-NaF percentage binding to CPP2 ([3]; concentration 25000 (unit not given)): 66.3738% and 68.2115% and 51.6692%
18F-NaF percentage binding to CPP2 ([3]; concentration 75000 (unit not given)): 48.1457% and 55.4993% and 51.2901%
18F-NaF percentage binding to CPP2 ([3]; concentration 250000 (unit not given)): 52.9543% and 43.7782% and 27.6001%
18F-NaF percentage binding to CPP2 ([3]; concentration 750000 (unit not given), replicates Fig. 2c): 50.6666% and 38.054% and 33.4917%

COCCOCCO[C@@H]1[C@@H](OP(=O)(O)O)[C@H](OCCOCCOC)[C@@H](OP(=O)(O)O)[C@@H](OP(=O)(O)O)[C@H]1OP(=O)(O)O [(OEG2)2-IP4, 4,6-Di-O-(methoxy-diethyleneglycol)-myo-inositol-1,2,3,5-tetrakis(phosphate)]
Macrophage viability (MTS), % of medium control [1, 4]: 98.1% and 100.05%
Macrophage viability (MTS), % of medium control ([1]; 10 µM + CPP2, 10 µM): 99.92% and 100.59%
Macrophage viability (MTS), % of medium control ([1]; 30 µM + CPP2, 30 µM): 96.73% and 98.39%
Macrophage viability (MTS), % of medium control ([1]; 100 µM + CPP2, 100 µM): 94.54% and 99.09%
viability at 24 h, 3 µM [2]: 100%
viability at 24 h, 10 µM [2]: 97.5%
viability at 24 h, 30 µM [2]: 96.5%
viability at 24 h, 100 µM [2]: 99.1%
IC50 [3]: 0.81 µM
IC90 ([3]; as assessed in Fig. 2c, read-out: IC90 (concentration inhibiting 90% 18F-NaF binding)): 8.6 µM
IC90 ([3]; as used for tissue explants, read-out: IC90): 8.55 µM
18F-NaF percentage binding to CPP2 ([3]; concentration 0.75 (unit not given), listed as INS-3001): 105.464% and 94.9958% and 112.003%
18F-NaF percentage binding to CPP2 ([3]; concentration 2.5 (unit not given), listed as INS-3001): 107.219% and 104.697% and 115.819%
18F-NaF percentage binding to CPP2 ([3]; concentration 7.5 (unit not given), listed as INS-3001): 94.1661% and 101.068% and 121.959%
18F-NaF percentage binding to CPP2 ([3]; concentration 25 (unit not given), listed as INS-3001): 108.675% and 100.128% and 123.491%
18F-NaF percentage binding to CPP2 ([3]; concentration 75 (unit not given), listed as INS-3001): 113.007% and 98.9202% and 111.871%
18F-NaF percentage binding to CPP2 ([3]; concentration 250 (unit not given), listed as INS-3001): 85.5215% and 95.9196% and 111.875%
18F-NaF percentage binding to CPP2 ([3]; concentration 750 (unit not given), listed as INS-3001): 70.0481% and 89.1189% and 102.542%
18F-NaF percentage binding to CPP2 ([3]; concentration 1750 (unit not given), listed as INS-3001): 31.7703% and 41.2562% and 38.4419%
18F-NaF percentage binding to CPP2 ([3]; concentration 7500 (unit not given), listed as INS-3001): 12.1628% and 10.8683% and 17.508%
18F-NaF percentage binding to CPP2 ([3]; concentration 25000 (unit not given), listed as INS-3001): 16.4031% and 18.0245% and 30.0027%
18F-NaF percentage binding to CPP2 ([3]; concentration 75000 (unit not given), listed as INS-3001): 21.5957% and 22.2508% and 37.2218%
18F-NaF percentage binding to CPP2 ([3]; concentration 250000 (unit not given), listed as INS-3001): 17.9597% and 19.9827% and 35.4457%
18F-NaF percentage binding to CPP2 ([3]; concentration 750000 (unit not given), replicates Fig. 2c, listed as INS-3001): 28.6563% and 25.7698% and 36.7738%
